Columns and labels:
[1] = design: method as in doi:10.1200/JCO.2018.36.15_suppl.e21122; settings: in vivo pharmacokinetic studies in humans (patients); cited from earlier work
ABCC1 = target: T1, ABCC1 (Homo sapiens, UniProt P33527); test: calcein AM accumulation assay in MDCKII-ABCC1 cells; type: cell-based; settings: read-out: IC50, inhibition of ABCC1-mediated calcein AM efflux
T1 construct: expressed in transfected cells; host or cells: MDCKII-ABCC1 (from Dr. Alfred Schinkel, The Netherlands Cancer Institute)
Method: Cellular accumulation assay with hoechst 33342 and calcein AM was performed as described previously. Briefly, MDCKII-par, MDCKII-ABCB1, MDCKII-ABCG2, and MDCKII-ABCC1 cells were seeded at densities of 5.0 × 10^4, 5.0 × 10^4, 5.5 × 10^4, and 6.0 × 10^4 cells/well, respectively, on a transparent 96-well plate and grown to full confluence for 24 h under standard conditions. The cells were then washed twice with 1 × PBS, after which was added either a dilution of ensartinib in Opti-MEM (1, 5, 10, 25, or 50 µM) or a specific inhibitor to act as a positive control (1 µM LY335979, 1 µM Ko143, or 25 µM MK-571 for ABCB1, ABCG2, or ABCC1, respectively). Cells were pre-incubated for 10 min, then 8 µM hoechst 33342 (a model substrate for ABCB1 and ABCG2) or 2 µM calcein AM (ABCC1 substrate) diluted in Opti-MEM was quickly added to all wells other than those containing blank samples. The intracellular levels of the substrates were then determined at 1 min intervals for 30 min using a microplate reader (Infinite M200 Pro, Tecan, Männedorf, Switzerland). Fluorescence was monitored in bottom mode using excitation/emission wavelengths of 350/465 and 485/535 nm for hoechst 33342 and calcein AM, respectively.

ABCB1 = test system: T2, ABCB1; test: ABCB1 ATPase assay (ABCB1-Sf9 membrane fraction); type: biochemical; settings: ABCB1-Sf9 membranes
T2 construct: purchased Solvo Biotechnology SB MDR1/P-gp; host or cells: Sf9 cell membranes
Method: The ABCB1 ATPase assay was performed with minor modifications as described previously. The ATPase activitity was determined using ABCB1 […] ATPase Kit according to the manufacturer’s instructions. Sf9 cell membranes (4 µg protein per well) were mixed with various concentrations of ensartinib. The reaction mixture was then incubated for 10 min at 37 °C in the presence or absence of 1.2 mM sodium orthovanadate. The ATPase reactions were started by the addition of 10 mM ATP magnesium salt and stopped 10 min later. After 30 min incubation, absorbance was measured at 590 nm using the microplate reader (Infinite M200, Tecan, Salzburg, Austria). Phosphate standards were present in each plate; verapamil was used as positive control for ABCB1 stimulation.

CYP2C19 = target: T3, CYP2C19 (Homo sapiens, UniProt P33261); test: Vivid CYP screening kit, recombinant CYP2C19; type: biochemical; settings: recombinant enzyme, 15 min incubation, absolute IC50; read-out: CYP2C19 inhibition IC50
T3 construct: purchased Thermo Fisher Scientific; host or cells: insect microsomal fractions
Method: CYP inhibitory assay was performed as described previously. Experiments were performed with commercial Vivid CYP screening kits containing insect microsomal fractions enriched with a specific human CYP isoform, human CYP reductase, and in some cases, human cytochrome b5. The potential inhibitory activity of ensartinib toward CYP1A2, CYP2B6, CYP2C8, CYP2C9, CYP2C19, CYP2D6, CYP3A4, and CYP3A5 (i.e., all CYP isoforms that drug regulatory authorities recommend for testing of inhibition by new molecular entities) was then examined. Experiments were performed using a kinetic mode in black 96-well plates according to the manufacturer´s instructions. Briefly, 5-point serial dilutions of ensartinib or the model inhibitor recommended by the manufacturer in buffer were transferred into the wells, then a master mix consisting of a CYP isoenzyme with an NADPH regeneration system in buffer was added. After a 10 min pre-incubation, the reaction was initiated by adding a mixture of NADP^+ and the appropriate Vivid substrate, after which fluorescence was measured at 1 min intervals for 60 min using an Infinite M200 Pro microplate reader (Tecan, Männedorf, Switzerland). The enzyme concentration and incubation interval used for data evaluation (15 min) placed the systems within the linear regions of the appropriate reaction velocity curves. […]

T1 sequence (P33527 whole entry): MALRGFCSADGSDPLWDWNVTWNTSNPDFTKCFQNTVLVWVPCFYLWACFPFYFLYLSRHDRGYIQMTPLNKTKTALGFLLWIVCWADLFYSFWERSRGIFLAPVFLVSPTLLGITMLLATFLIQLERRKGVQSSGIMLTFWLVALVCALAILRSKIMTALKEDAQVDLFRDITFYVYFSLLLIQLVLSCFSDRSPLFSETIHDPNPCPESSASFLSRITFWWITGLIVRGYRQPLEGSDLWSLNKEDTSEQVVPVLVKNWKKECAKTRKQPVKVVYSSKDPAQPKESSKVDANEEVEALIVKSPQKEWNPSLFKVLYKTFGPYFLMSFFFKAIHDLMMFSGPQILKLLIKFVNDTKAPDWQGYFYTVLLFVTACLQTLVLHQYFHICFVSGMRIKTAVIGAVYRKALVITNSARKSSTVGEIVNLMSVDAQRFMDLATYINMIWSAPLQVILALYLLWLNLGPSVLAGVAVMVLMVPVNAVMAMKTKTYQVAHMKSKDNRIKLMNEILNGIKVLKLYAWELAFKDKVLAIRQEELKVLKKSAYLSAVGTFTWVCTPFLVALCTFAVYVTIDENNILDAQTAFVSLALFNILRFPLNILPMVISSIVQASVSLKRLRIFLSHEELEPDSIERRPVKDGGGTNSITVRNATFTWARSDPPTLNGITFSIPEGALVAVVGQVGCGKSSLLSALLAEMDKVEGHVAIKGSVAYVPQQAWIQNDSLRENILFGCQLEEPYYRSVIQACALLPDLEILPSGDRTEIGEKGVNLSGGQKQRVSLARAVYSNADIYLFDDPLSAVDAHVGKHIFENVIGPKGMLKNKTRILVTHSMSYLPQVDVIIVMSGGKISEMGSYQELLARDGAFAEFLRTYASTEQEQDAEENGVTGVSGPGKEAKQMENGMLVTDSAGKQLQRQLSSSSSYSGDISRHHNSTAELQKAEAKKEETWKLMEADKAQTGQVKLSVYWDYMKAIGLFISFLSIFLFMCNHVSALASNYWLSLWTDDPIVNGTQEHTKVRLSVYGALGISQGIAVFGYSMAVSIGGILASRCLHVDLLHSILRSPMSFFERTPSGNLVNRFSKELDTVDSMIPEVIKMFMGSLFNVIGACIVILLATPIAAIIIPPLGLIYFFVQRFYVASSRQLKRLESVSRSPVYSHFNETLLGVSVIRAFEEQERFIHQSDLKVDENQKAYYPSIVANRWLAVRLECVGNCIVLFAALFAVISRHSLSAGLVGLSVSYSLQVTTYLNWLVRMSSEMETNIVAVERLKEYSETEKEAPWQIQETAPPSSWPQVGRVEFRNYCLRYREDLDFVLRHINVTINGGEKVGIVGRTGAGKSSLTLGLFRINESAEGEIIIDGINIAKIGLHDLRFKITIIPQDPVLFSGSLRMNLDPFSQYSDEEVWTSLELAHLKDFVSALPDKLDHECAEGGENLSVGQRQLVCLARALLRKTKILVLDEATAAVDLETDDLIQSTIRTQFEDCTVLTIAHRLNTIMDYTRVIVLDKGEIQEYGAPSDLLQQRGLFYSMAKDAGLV
T3 sequence (P33261 whole entry): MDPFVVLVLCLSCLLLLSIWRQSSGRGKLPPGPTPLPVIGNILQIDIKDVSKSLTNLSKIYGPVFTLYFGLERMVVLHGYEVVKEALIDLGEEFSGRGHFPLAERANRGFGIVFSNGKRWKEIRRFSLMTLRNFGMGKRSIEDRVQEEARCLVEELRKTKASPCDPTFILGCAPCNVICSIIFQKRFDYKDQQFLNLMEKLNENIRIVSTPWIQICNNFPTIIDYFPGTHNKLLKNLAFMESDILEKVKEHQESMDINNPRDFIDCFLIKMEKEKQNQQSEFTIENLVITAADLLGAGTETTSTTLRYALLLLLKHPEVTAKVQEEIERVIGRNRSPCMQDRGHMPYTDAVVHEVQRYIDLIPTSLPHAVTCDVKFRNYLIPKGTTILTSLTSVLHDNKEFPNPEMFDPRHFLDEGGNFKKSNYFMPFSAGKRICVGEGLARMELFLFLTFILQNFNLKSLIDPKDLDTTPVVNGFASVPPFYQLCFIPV

For `C[C@@H]1CN(C(=O)c2ccc(NC(=O)c3cc(O[C@H](C)c4c(Cl)ccc(F)c4Cl)c(N)nn3)cc2)C[C@H](C)N1` [ensartinib, Ensartinib], the Cmax [1] is listed as 1000 nM, the IC50 (ABCC1) is listed as > 50 µM and the “effect on baseline vanadate-sensitive ATPase activity of ABCB1” value (ABCB1; activation experiment) is listed as “significantly increased”. For the same compound, the “effect on verapamil-stimulated ATPase activity of ABCB1” value (ABCB1; inhibition experiment) was “significantly decreased” and the IC50 (CYP2C19) was 14.6 µM.
